Results on one substance are retold here after US10137171B2, “Methods of treatment using a pentapeptide derived from the C-Terminus of Glucagon-Like Peptide 1 (GLP-1)” (The General Hospital Corporation, priority 2011, dated 2018).

“Also recorded” adds a separate entry of the source. Where no end group is shown, it is not given here.

Assay [1] relates to diet-induced obese mice. As to the kind of experiment: Dual energy X-ray absorptiometry (DXA) of lean, fat and total body mass. The class given is in vivo, mouse. From the text: FIGS. 2A-D are bar graphs showing the results of determinations of lean, fat, and total body mass by dual X-ray absorptiometry (DXA) of mice receiving continuous infusions of the pentapeptide […] or control vehicle alone for 16 weeks. At the time of the study the mice were 39 weeks of age and on the very high fat diet for 33 weeks. 2A. Fat versus lean mass. The fat mass is 40% less in the pentapeptide infused compared to the control vehicle infused mice. *P<0.0008. […] 2B. Total body mass (lean+fat) differences in peptide infused versus vehicle control infused obese mice. *P<0.002. 2C. Fat mass expressed as the fraction of fat mass in peptide infused mice versus vehicle control infused obese mice. *P<0.0008. 2D. Fat mass expressed as the percentage of body weight, peptide-infused versus vehicle control-infused obese mice. *P<0.001. N=6 mice per group. Values are means+/−SEMs.
Mice were anesthetized with 0.02 ml of a 2% tribromoethanol solution per gram of body weight and scanned with a dual X-ray apparatus (Lunar Piximus, GE Medical Systems, Wauwatosa, Wis.). Total, fat, and lean body mass was quantitatively determined.

The test system of assay [2] is diet-induced obese mice. Briefly: Intraperitoneal glucose tolerance test (ipGTT). The class given is in vivo, mouse. The settings on record: glucose 2 g/kg BW ip, overnight fasted, VHFD 24 weeks, 16 weeks infusion (FIG. 5C). As for the experimental part:
FIGS. 5C-D are a pair of line graphs Plasma glucose levels (FIG. 5C) and (FIG. 5D) Plasma insulin levels after an intraperitoneal glucose administration ([…] BW ip) in overnight fasted mice fed in VHFD for 24-weeks and 16-weeks of continuous infusions of vehicle or GLP-1(32-36)amide. ***p<4E-03 vehicle vs. GLP-1(32-36)amide, *p<0.01 vehicle vs. GLP-1(32-36)amide, **p<0.004 vehicle vs. GLP-1(32-36)amide, *****p<1.7E-05 vehicle vs. GLP-1(32-36)amide, ****p<6.7 E-04 vehicle vs. GLP-1(32-36)amide.
Mice were maintained in a normal light/dark cycle according to the standard protocols of the MGH Animal Care and Use Committee. Mice were tested with age matched or litter mate controls and 6 mice per group are required. […] The following morning the mice were prepared for the glucose tolerance test: animals were weighed, the tail was nicked with a fresh razor blade by a horizontal cut of the very end, ˜35 to 50 microliters of blood is massaged from the tail to an eppendorf tube which is immediately placed on ice, baseline blood glucose is measured by the glucose oxidase method using a Glucometer Elite glucometer, and 2 grams/kg body weight of 20% D-glucose is drawn up in a Beckton Dickenson D 29 gage ½″ insulin syringe (one unit of D-glucose for every gram of body weight). Animals were then transferred to individually labeled 1000 cc cardboard soup cups with the lid liners removed.
Following animal preparation, glucose was injected into the intraperitoneal cavity. At 10, 20, 30, 60, 120, and 140 minutes blood glucose is sampled from the tail of each mouse by gently massaging a small drop of blood onto the glucometer strip. Glucose injections and blood glucose sampling is timed to take approximately the same amount of time per animal (i.e. 25 animals are injected in 12 minutes and blood glucose sampling of those same 25 animals should also take about 12 minutes) so that the sample times are accurate for each animal.

Assay [3] has as its system diet-induced obese mice. Briefly: Liver triglyceride content. It is filed as in vivo, mouse. As for the experimental part:
FIGS. 6A-B are bar graphs showing that infusions of GLP-1(32-36)amide in mice prevent the accumulation of triglyceride in the livers of mice fed a very high-diet (VHFD). Triglyceride contents of samples of livers of mice fed a high-fat diet (VHFD) for 32 weeks (age 38 weeks). 6A. Triglyceride levels of pentapeptide-infused obese mice as a percent of the vehicle-infused control mice set at 100%. *p<0.005. 6B. Triglyceride content levels of 60.5+/−12.1 mg/mg protein. Infusion of the pentapeptide lowered the triglyceride content by 65% to 21.1+/−5.6 mg/mg protein, indistinguishable from the values in the livers of lean mice fed low-fat chow (21.6+/−7 mg/mg protein). Data from diet-induced obese mice infused with the nonapeptide, GLP-1(28-36)amide for 16 weeks are also shown. Values are represented as % of vehicle control infused mice fed a high-fat diet (VHFD). *p<0.005, peptide vs. vehicle. N=6 mice per group. Values are means+/−SEMs.
Representative samples (2-3 gms) of livers were obtained and quick frozen on solid CO2 at the time of sacrifice and necropsy. The samples were subsequently homogenized and triglycerides were extracted and measured using a colorimetric enzymatic assay (Serum Triglyceride Determination kit, Sigma).

The test system of assay [4] is insulin-resistant isolated mouse hepatocytes. As to the kind of experiment: ROS formation assay (isolated primary hepatocytes). The settings on record: 30 mM glucose 24 h; peptide 10 pM, 100 pM and 100 nM (FIG. 9A). The class given is cell-based. As for the experimental part:
FIG. 9A is a bar graph showing suppression of the production of reactive oxygen species (ROS) by the pentapeptide GLP-1(32-36)amide in insulin-resistant isolated mouse hepatocytes. Hepatocytes were rendered insulin-resistant by their pre-incubation in 30 mM glucose. Primary hepatocytes from C57BL/6J mice were seeded at 2×10^5 cell per well in twelve-well plates and treated for 24 h with 30 mM glucose in the absence of presence of GLP-1(32-36)amide (10 pM, 100 pM and 100 nM). To measure ROS levels cells were washed twice in HBSS (Hanks' Balance Salt Solution) and incubated with 10 uM 5-(and 6)-carboxy-2′,7′-dichlorohydro-fluorescein diacetate (CM-H2DCFDA) (Molecular Probes) for 45 minutes. The media were removed and cells were lysed. ROS was measured in the cell lysates using a spectrofluorometer (485 nm/535 nm). Data were normalized to values obtained from untreated controls. The data shown are the means of two independent hepatocyte isolations+/−SEMs.
Primary hepatocytes from diet-induced obese (DIO) and C57BL/6J mice were seeded in 12-well plates at a density of 2×10^5/well for 24 h. C57BL/6J hepatocytes were treated with 30 mM glucose in the absence or presence of GLP-1(32-36)amide for 20 to 24 h and compared to DIO hepatocytes treated with GLP-1(32-36)amide. […] ROS was measured in the cell lysates using a spectrofluorometer (485 nm/535 nm). […]

Where [5] appears, read: after 16 weeks infusion, VHFD mice (FIG. 2A).

Take “LVKGRamide (LVKGR-NH2) [GLP-1(32-36)amide, pentapeptide derived from the C-terminus of the glucoincretin hormone GLP-1]”: in the assay with diet-induced obese mice [1] (after 16 weeks infusion (FIG. 2C)), the “relative (%) fat mass compared to vehicle-treated mice (DXA)” value is on record as “decreased”. Besides, in the assay on diet-induced obese mice [1] (setting [5]), the “fat mass reduction compared to vehicle control (DXA)” value is given as 40% and the “lean mass change compared to vehicle control (DXA)” value was “no significant difference”. Moreover, in the assay with diet-induced obese mice [1] (after 16 weeks infusion, VHFD mice (FIG. 2A), listed as pentapeptide), the “lean mass change compared to vehicle control (DXA)” value was “no significant changes; also recorded: no significant difference”. Further, the “total body mass (body weight) (DXA)” value with diet-induced obese mice [1] (after 16 weeks infusion, vs vehicle (FIG. 2B)) is listed as “decreased”. Besides, the “ratio of fat mass to body weight (DXA)” value in the assay with diet-induced obese mice [1] (after 16 weeks infusion, vs vehicle (FIG. 2D)) is listed as “decreased”. Also, in the assay with diet-induced obese mice [2], the “glycemic response in ipGTT” value is on record as “normal”. For the same substance, the “liver triglyceride as percent of vehicle control set at 100%” value in the assay with diet-induced obese mice [3] (VHFD mice (FIG. 6A)) is 35%. In the assay with diet-induced obese mice [3] (VHFD mice, pentapeptide infusion (FIG. 6A, 6B)), the “liver triglyceride content decrease compared to vehicle” value amounted to 65%. Further, the liver triglyceride content in the assay on diet-induced obese mice [3] (VHFD mice, vehicle 60.5+/-12.1, lean low-fat diet mice 21.6+/-7 (FIG. 6B)) is listed as 21.1+/−5.6 mg/mg protein. Further, the ROS levels entry in assay [4] is on record as “prevented the rise in ROS levels; also recorded: suppression”.
